Test results published in patent US20230339856A1, “NOVEL PHARMACOLOGICAL CHAPERONE COMPOUNDS OF HUMAN ACID ALPHA-GLUCOSIDASE AND THE THERAPEUTIC USE THEREOF” (UNIVERSITÉ GRENOBLE ALPES, priority 2020, published 2023).
Read-outs that look alike come from different tables or passages of the source.

Key:
[1] = molecular target: T1, recombinant human acid α-glucosidase (rhGAA) (Homo sapiens (Human), UniProt P10253); test: Inhibition of rhGAA determined by Fluopol-ABPP; format: binding; conditions: McIlvaine buffer pH 5.0, 37° C., TAMRA probe
Excerpt: The inhibiting activity on recombinant human acid α-glucosidase (rhGAA) of the compounds is implemented using the Fluopol-ABPP method (Fluorescence Polarization Activity Based Protein Profiling) described in the publication of Lahav et al., 2017, J. Am. Chem. Soc. 139: 14192-14197. This technique, based on the competition between an inhibitor and a fluorescent probe capable of binding covalently to the active site of an enzyme, makes it possible to measure the affinity of this inhibitor for the active site of the rhGAA enzyme used for these experiments by the laboratory of Professors Herman S. Overkleeft and Johanes M. F. G. Aerts, Leiden Institute of Chemistry, Leiden University (NL), is the enzyme marketed under the name Myozyme®. […] The […] (TAMRA) fluorescent probe in solution (25 nM) in the buffer is next added to the mixture. After 4 hours, the samples are irradiated with a polarized light (λ=530 nm) and the fluorescence emitted (λ=580 nm) is measured by means of an Infinite® M1000Pro (Tecan) spectrofluorimeter. For each concentration of inhibitor, the percentage of inhibition of the enzyme is determined by the formula:
%Inhibition=[Fmeasured−Fcontrol1)/Fcontro2)×100
The IC50 values are calculated by a non-linear regression of the % inhibition as a function of the concentration [I] by means of the GraphPad Prism 6.0 software. The results are a mean of three identical experiments (triplicates).

[2] = molecular target: T1, recombinant human acid α-glucosidase (rhGAA); test: Inhibition of rhGAA determined by measuring the residual activity in vitro; format: biochemical; conditions: sodium acetate buffer pH 4.0, 37° C.; for IC50: 4-nitrophenyl-α-D-glucopyranoside substrate
rhGAA = rhGAA (Homo sapiens (Human), UniProt P10253); test: Thermal stabilization of rhGAA by DSF (differential scanning fluorimetry); format: binding
Experimental: The stabilization of rhGAA in the presence of the compounds is determined in accordance with the method described in the publication of Niesen et al., 2007, Nat. Protoc. 2: 2212-2221. The rhGAA enzyme (2.5 μg, 0.1 mg/mL) is incubated in the absence and in the presence of each compound (at a concentration [I]=100 μM), of SYPRO® orange dye (Life Technologies), and of sodium phosphate buffer (25 mM) and of NaCI (150 mM), pH 7.4 or of sodium acetate buffer (25 mmol) and of NaCl (150 mM), pH 4.0. The thermal stability of the enzyme in these various conditions is evaluated by DSF (differential scanning fluorimetry) by varying the temperature by 1° C./min over an interval of 25 to 95° C., and measuring the fluorescence of the SYPRO® orange dye every minute by means of a Real-Time Cycler spectrofluorimeter (Biorad). The relative fluorescence is determined by comparing each fluorescence value measured with that of the maximum fluorescence value of the SYPRO® orange dye for each scan. The results are a mean of three identical experiments (triplicates).

[3] = molecular target: α-glucosidase II of the endoplasmic reticulum (GANAB) (Homo sapiens (Human), UniProt Q14697); test: Inhibition of GANAB in lysates of fibroblasts of Pompe patients; format: biochemical; conditions: pH 7.0, 4-methyl-umbelliferone-α-D-glucopyranoside 2.4 mM, 2 hours
Experimental: (§1) The selectivity of the compounds was evaluated in the laboratory of Professors Herman S. Overkleeft and Johanes M. F. G. Aerts, Leiden Institute of Chemistry, Leiden University (NL). The enzymes used for determining the selectivity of inhibition of the compounds with respect to various human enzymes are the α-glucosidase II of the endoplasmic reticulum (GANAB), recombinant human lysosomal β-glucocerebrosidase (GBA1), human non-lysosomal β-glucosylceramidase (GBA2) and β-glucosylceramide synthase (GCS). The inhibiting activity of the compounds on these various enzymes is determined as described in the publication by Artola et al., 2017, ACS Cent. Sci. 3: 784-793. The enzyme GBA1 sold under the name Cerezyme® and the enzyme rhGAA sold under the name Myozyme® are used. The human GANAB enzyme used for this study is that of fibroblasts of patients suffering from Pompe disease diagnosed as lacking active GAA and voluntary donors. These fibroblasts were cultivated on an HAMF12-DMEM medium (Sigma) supplemented by 10% (v/v) FCS (fetal calf serum). The GBA2 enzyme was over-expressed in HEK298T cells cultivated on a DMEM medium enriched with glucose (Gibco) supplemented by 10% NBS (newborn bovine serum) and 100 units/mL of penicillin/streptomycin (Gibco) and 5% CO2 at 37° C. The activity of the compounds on human β-glucosylceramide synthase (GCS) is evaluated in situ on cells of the RAW 264.7 type cultivated on an RPMI medium (Gibco) supplemented by 10% FCS, 1 mM of glutamax, 100 units/mL of penicillin/streptomycin (Gibco) and 5% CO2 at 37° C.
(§2) These cell lysates are homogenized using a SilentCrusher grinder (Heidolph®), and then subjected to ultracentrifugation at 32,000 rpm for 30 minutes at 4° C. The total protein concentration is determined in accordance with the Bradford method (Bradford, 1976, Anal. Biochem. 72: 248-254), using a Bradford BioRad Quick Start® kit (Pierce) and BSA (Sigma). The lysates are next aliquoted and stored at −80° C. before use.

[4] = molecular target: recombinant human lysosomal β-glucocerebrosidase (GBA1) (Homo sapiens (Human), UniProt P04062, R534H); test: Inhibition of GBA1 (Cerezyme); format: biochemical; conditions: pH 5.2, 4-methyl-umbelliferone-β-D-glucopyranoside 3.0 mM, 30 minutes
Experimental: as §1

[5] = molecular target: human non-lysosomal β-glucosylceramidase (GBA2) (Homo sapiens (Human), UniProt Q9HCG7); test: Inhibition of GBA2 in lysates of HEK298T cells over-expressing GBA2; format: biochemical; conditions: pH 5.8, 4-methyl-umbelliferone-β-D-glucopyranoside 3.0 mM, 1 hour
Experimental: as §1, §2
The residual activity of GBA2 in the presence of the compounds is determined after pre-incubation for 30 minutes of the homogenates of HEK298T cells over-expressing GBA2 with an inhibitor of GBA1, conduritol β-epoxide (Sigma), at a concentration of 1 mM.

[6] = molecular target: β-glucosylceramide synthase (GCS) (Mus musculus (Mouse), UniProt O88693); test: Inhibition of GCS in situ in RAW 264.7 cells; format: cell-based; conditions: pH 7.0, 1 μM NBD-ceramide
Experimental: as §1, §2
The residual activity of GCS in the presence of the compounds is determined after pre-incubation for 1 hour of the homogenates of RAW 264.7 cells with an inhibitor of GBA1, conduritol β-epoxide (Sigma), at a concentration of 300 μM.
The I50 values for the GCS enzyme are determined in situ in the cell culture medium at pH 7.0 using 1 μM of NBD-ceramide (N-[12-[(7-nitro-2-1,3-benzoxadiazol-4-yl)amino]dodecanoyl]-D-erythro-sphingosine) as substrate, as described in the aforementioned publication of Lahav et al.

[7] = [I]=100 μM, pH 4.0, read-out: rhGAA ΔTm at pH 4.0
[8] = [I]=100 μM, pH 7.4, read-out: rhGAA ΔTm at pH 7.4

Sequence of β-glucosylceramide synthase (GCS) (O88693 whole entry): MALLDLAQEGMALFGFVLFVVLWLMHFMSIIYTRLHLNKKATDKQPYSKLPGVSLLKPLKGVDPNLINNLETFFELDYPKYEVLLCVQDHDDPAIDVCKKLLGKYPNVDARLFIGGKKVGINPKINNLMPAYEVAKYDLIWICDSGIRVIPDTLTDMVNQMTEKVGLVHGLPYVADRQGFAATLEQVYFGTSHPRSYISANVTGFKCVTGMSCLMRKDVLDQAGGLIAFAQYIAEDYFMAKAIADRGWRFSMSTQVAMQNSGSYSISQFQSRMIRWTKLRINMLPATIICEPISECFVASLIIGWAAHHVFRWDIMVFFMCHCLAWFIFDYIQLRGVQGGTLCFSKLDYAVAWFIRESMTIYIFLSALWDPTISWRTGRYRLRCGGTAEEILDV
Sequence of recombinant human lysosomal β-glucocerebrosidase (GBA1) (P04062 40-536 R534H limits assumed): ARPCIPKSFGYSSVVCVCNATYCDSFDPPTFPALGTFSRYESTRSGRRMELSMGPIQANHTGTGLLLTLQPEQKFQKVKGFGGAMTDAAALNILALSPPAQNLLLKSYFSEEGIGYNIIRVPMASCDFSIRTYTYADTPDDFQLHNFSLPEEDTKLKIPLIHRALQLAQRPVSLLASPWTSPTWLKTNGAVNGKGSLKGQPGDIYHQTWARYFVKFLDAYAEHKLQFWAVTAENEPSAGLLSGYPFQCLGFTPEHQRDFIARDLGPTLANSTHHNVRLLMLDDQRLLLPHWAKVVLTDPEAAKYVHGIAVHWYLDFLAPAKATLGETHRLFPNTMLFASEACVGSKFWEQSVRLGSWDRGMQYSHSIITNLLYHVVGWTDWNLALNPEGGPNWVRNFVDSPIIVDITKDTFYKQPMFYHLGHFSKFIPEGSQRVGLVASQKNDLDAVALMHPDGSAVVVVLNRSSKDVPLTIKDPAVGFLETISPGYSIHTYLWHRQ
Sequence of α-glucosidase II of the endoplasmic reticulum (GANAB) (Q14697 29-944): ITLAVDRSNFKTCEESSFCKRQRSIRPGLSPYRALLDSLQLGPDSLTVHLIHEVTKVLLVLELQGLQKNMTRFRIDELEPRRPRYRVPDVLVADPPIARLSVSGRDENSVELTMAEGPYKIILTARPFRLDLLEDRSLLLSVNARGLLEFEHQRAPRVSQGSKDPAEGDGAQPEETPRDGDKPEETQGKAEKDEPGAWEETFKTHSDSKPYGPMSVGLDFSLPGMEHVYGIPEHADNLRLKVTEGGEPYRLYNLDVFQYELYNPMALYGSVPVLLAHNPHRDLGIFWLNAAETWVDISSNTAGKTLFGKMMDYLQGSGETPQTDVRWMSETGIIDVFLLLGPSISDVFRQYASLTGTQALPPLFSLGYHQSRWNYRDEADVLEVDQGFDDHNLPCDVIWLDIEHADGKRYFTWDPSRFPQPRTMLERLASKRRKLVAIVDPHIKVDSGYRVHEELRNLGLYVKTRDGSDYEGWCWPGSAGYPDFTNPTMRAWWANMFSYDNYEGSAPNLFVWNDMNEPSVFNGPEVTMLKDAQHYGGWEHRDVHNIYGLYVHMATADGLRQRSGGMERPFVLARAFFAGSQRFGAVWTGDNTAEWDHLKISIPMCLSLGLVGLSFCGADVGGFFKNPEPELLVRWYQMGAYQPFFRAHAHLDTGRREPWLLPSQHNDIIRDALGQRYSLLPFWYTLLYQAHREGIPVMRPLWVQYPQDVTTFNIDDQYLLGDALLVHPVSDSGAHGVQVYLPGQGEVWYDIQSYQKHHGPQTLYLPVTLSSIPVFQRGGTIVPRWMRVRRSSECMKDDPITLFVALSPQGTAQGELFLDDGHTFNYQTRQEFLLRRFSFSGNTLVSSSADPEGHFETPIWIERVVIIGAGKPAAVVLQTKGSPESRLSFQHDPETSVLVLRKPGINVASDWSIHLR
Sequence of α-glucosidase II of the endoplasmic reticulum (GANAB) (P14314 15-528 partner): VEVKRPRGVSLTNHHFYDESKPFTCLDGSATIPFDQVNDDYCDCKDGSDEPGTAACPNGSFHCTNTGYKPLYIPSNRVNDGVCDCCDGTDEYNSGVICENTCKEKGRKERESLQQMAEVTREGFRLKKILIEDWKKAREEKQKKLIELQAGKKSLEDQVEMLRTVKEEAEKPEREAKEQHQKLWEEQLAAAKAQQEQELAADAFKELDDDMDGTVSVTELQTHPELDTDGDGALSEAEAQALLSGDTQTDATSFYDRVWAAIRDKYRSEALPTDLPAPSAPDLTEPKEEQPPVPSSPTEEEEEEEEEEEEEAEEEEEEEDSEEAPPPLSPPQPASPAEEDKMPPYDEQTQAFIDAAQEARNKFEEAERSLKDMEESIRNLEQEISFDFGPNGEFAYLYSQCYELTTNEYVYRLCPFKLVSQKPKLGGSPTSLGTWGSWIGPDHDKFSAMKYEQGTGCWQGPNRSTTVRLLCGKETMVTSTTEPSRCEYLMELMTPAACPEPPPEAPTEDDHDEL
Sequence of human non-lysosomal β-glucosylceramidase (GBA2) (Q9HCG7 whole entry): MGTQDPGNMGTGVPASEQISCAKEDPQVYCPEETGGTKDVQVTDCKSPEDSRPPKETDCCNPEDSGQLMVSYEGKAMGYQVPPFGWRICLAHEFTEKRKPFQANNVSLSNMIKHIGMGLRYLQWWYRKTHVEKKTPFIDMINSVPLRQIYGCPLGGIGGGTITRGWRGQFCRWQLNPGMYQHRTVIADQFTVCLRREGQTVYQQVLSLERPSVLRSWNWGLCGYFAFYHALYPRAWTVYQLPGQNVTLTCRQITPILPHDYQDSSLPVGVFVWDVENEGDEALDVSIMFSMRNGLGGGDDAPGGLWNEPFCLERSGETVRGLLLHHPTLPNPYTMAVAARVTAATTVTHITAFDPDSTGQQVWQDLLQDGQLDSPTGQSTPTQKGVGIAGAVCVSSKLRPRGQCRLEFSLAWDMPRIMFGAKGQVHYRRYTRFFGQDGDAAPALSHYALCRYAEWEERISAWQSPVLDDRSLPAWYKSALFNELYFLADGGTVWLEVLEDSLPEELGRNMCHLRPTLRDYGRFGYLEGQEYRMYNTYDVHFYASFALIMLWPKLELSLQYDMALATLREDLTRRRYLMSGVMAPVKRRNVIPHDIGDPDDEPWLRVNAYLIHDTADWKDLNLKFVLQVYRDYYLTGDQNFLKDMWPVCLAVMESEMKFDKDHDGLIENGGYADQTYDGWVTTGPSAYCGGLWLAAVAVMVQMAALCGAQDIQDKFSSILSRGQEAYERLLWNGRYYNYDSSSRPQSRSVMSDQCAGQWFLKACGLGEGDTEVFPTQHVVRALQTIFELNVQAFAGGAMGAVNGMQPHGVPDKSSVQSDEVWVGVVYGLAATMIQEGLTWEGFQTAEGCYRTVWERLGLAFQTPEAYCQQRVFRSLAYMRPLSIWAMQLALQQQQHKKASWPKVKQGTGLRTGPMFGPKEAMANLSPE

SMILES	IC50 [1]	IC50 [2]	ΔTm at 100 µM (rhGAA; [8])	IC50 [3]	IC50 [4]	IC50 [5]	IC50 [6]	Ki [2]	further results
OC[C@]12[C@@H](O)[C@H](O)[C@@H](O)CN1[C@@H]2C(O)c1ccccc1 (stereo in doubt) [Compound (IIm), (3S,4R,5R,6R,7S)-7-((S)-hydroxy(phenyl)methyl)-6-(hydroxymethyl)-1-azabicyclo[4.1.0]heptane-3,4,5-triol]	45 µM	–	–	–	–	–	–	–	–
CC[C@]1(CO)NC[C@H](O)[C@@H](O)[C@@H]1O [(IIa), (2R,3R,4R,5S)-2-ethyl-2-(hydroxymethyl)piperidine-3,4,5-triol]	0.42 µM	341 µM	12.7 °C	> 100 µM	> 1000 µM	> 1000 µM	> 50 µM	–	ΔTm at 100 µM (rhGAA; [7]): 8.1 °C
CCC[C@]1(CO)NC[C@H](O)[C@@H](O)[C@@H]1O [(IIb), (2R,3R,4R,5S)-2-(hydroxymethyl)-2-propylpiperidine-3,4,5-triol]	0.39 µM	104 µM	11.5 °C	> 100 µM	> 1000 µM	> 1000 µM	> 50 µM	13 µM	ΔTm at 100 µM (rhGAA; [7]): 7.8 °C
OC[C@@]1(CCc2ccccc2)NC[C@H](O)[C@@H](O)[C@@H]1O [(IIc), (2R,3R,4R,5S)-2-(hydroxymethyl)-2-phenethylpiperidine-3,4,5-triol]	0.22 µM	37.2 µM	13 °C	> 100 µM	> 1000 µM	> 1000 µM	> 50 µM	7.6 µM	ΔTm at 100 µM (rhGAA; [7]): 11.8 °C
OCC[C@]1(CO)NC[C@H](O)[C@@H](O)[C@@H]1O [(IId), (2R,3R,4R,5S)-2-(2-hydroxyethyl)-2-(hydroxymethyl)piperidine-3,4,5-triol]	0.15 µM	182 µM	10.7 °C	> 100 µM	> 1000 µM	> 1000 µM	> 50 µM	18.9 µM	ΔTm at 100 µM (rhGAA; [7]): 9.4 °C
OC[C@@]12CCCCN1C[C@H](O)[C@@H](O)[C@@H]2O [(IIf), (1R,2R,3S,9aR)-9a-(hydroxymethyl)octahydro-1H-quinolizine-1,2,3-triol]	0.87 µM	297 µM	11.8 °C	> 100 µM	> 1000 µM	> 1000 µM	> 50 µM	–	ΔTm at 100 µM (rhGAA; [7]): 6.4 °C
OC[C@@]12CCCN1C[C@H](O)[C@@H](O)[C@@H]2O [(IIg), (6S, 7R, 8R, 8aR)-8a-(hydroxymethyl)-octahydroindolizine-6,7,8-triol]	0.46 µM	387 µM	–	> 100 µM	> 1000 µM	> 1000 µM	> 50 µM	–	ΔTm at 100 µM (rhGAA; read-out: rhGAA ΔTm at pH 4.0): 6.7 °C; ΔTm at 100 µM (rhGAA; read-out: rhGAA ΔTm at pH 7.4): 14.4 °C
CCCCC[C@]1(CO)NC[C@H](O)[C@@H](O)[C@@H]1O [Compound (IIb1), (2R,3R,4R,5S)-2-(hydroxymethyl)-2-pentylpiperidine-3,4,5-triol]	–	49.1 µM	6.2 °C	–	–	–	–	6.4 µM	–
CCCCCCC[C@]1(CO)NC[C@H](O)[C@@H](O)[C@@H]1O [Compound (IIb3), (2R,3R,4R,5S)-2-heptyl-2-(hydroxymethyl)piperidine-3,4,5-triol]	–	29.6 µM	16.9 °C	–	–	–	–	10.8 µM	–
OC[C@@]1(CCC2CCCCC2)NC[C@H](O)[C@@H](O)[C@@H]1O [Compound (IIb7), (2R,3R,4R,5S)-2-(2-cyclohexylethyl)-2-(hydroxymethyl)piperidine-3,4,5-triol]	–	–	16.8 °C	–	–	–	–	–	–
OC[C@@]1(CCCc2ccccc2)NC[C@H](O)[C@@H](O)[C@@H]1O [Compound (IIc1), (2R,3R,4R,5S)-2-(hydroxymethyl)-2-(3-phenylpropyl)piperidine-3,4,5-triol]	–	32.9 µM	15 °C	–	–	–	–	13 µM	–
OC[C@@]12CCN1C[C@H](O)[C@@H](O)[C@@H]2O [Compound (IIh), (3S,4R,5R,6R)-6-(hydroxymethyl)-1-azabicyclo[4.2.0]octane-3,4,5-triol]	9.7 µM	–	–	–	–	–	–	–	–
OC[C@@H](O)[C@H]1N2C[C@H](O)[C@@H](O)[C@H](O)[C@]12CO (stereo partly drawn) [Compound (IIj), (3S,4R,5R,6R,7S)-7-((S)-1,2-dihydroxyethyl)-6-(hydroxymethyl)-1-azabicyclo[4.1.0]heptane-3,4,5-triol]	15.2 µM	–	–	–	–	–	–	–	–
OC[C@H]1N2C[C@H](O)[C@@H](O)[C@H](O)[C@]12CO (stereo partly drawn) [Compound (IIk), (3S,4R,5R,6R,7S)-6,7-bis(hydroxymethyl)-1-azabicyclo[4.1.0]heptane-3,4,5-triol]	11.6 µM	–	–	–	–	–	–	–	–
OC[C@]12[C@@H](O)[C@H](O)[C@@H](O)CN1[C@@H]2[C@H](O)C1CCCCC1 (stereo partly drawn) [Compound (IIn), (3S,4R,5R,6R,7S)-7-((R)-cyclohexyl(hydroxy)methyl)-6-(hydroxymethyl)-1-azabicyclo[4.1.0]heptane-3,4,5-triol]	24.6 µM	–	–	–	–	–	–	–	–
OC[C@@]1(CCC23CC4CC(CC(C4)C2)C3)NC[C@H](O)[C@@H](O)[C@@H]1O [Compound (IIr)]	–	29.5 µM	–	–	–	–	–	20 µM	rhGAA ΔTm at pH 7.4 (rhGAA; [I]=100 μM, pH 7.4): 14.5 °C
C[Si](C)(C)CC[C@]1(CO)NC[C@H](O)[C@@H](O)[C@@H]1O [Compound (IIx1), (2R,3R,4R,5S)-2-(hydroxymethyl)-2-(2-(trimethylsilyl)ethyl)piperidine-3,4,5-triol]	–	40.3 µM	16.5 °C	–	–	–	–	–	–
